Laboratory results taken from article PMC12323621, “Exploring the antimicrobial activity of pantothenamides against uropathogenic Escherichia coli” (Microbiology Spectrum, 2025).
≈ marks a conversion by molar mass, not a printed value.

Assays:
UPEC strain CFT073 [1] = test system: UPEC strain CFT073; design: method as in PMID 37107054; details: 1 combined with BAP; cited from earlier work
[2] = Stability in mouse liver homogenate; type: in vitro ADME; details: for remaining at 1 h, 10 µM: mouse, liver tissue homogenate (10% wt/vol), 10% wt/vol homogenate, 10 µM compound, 37°C; for stability in mouse liver homogenate: n = 3
Protocol: (§1) Stability studies were conducted in mouse liver microsomes, mouse liver tissue homogenate, and CD1 mouse plasma as previously described with minor modifications ([54][–][56]). Briefly, for Phase I mouse liver microsome stability, reactions were carried out with 200 mM potassium phosphate buffer, pH 7.4, with or without an NADPH-regenerating system (1.3 mM NADPH, 3.3 mM glucose 6-phosphate, 3.3 mM MgCl2, 0.4 U/mL glucose-6-phosphate dehydrogenase, and 50 µM sodium citrate). Reactions, in triplicate, were initiated by the addition of liver microsomes to the incubation mixture (compound final concentration was 1 µM; 0.2 mg/mL microsomes) and incubated at 37°C for the desired incubation time. For liver stability, the tissue homogenate was prepared by washing tissues with diluted 10-fold 0.1 M potassium phosphate buffer and homogenized using a probe sonicator over ice. To evaluate the stability of the drugs over time, each of the crude homogenates was aliquoted to 1 mL and then spiked with a final assay concentration of 10 µM of each drug, followed by incubation in an orbital shaker at 37°C for 1 h (in triplicate). For plasma stability, 1 mL of plasma was spiked with 10 µM of each drug, followed by incubation in an orbital shaker at 37°C for 1 h (in triplicate). Samples from each metabolism study were quenched with 3× volume of acetonitrile containing internal standard (losartan: 0.5 µM) at the desired incubation times. […] Samples were vortex-mixed for 30 s and centrifuged at 10,000 × g for 10 min at 4°C. Compound disappearance over time was monitored using a Dionex ultra-high-performance liquid chromatography system consisting of an analytical pump and an autosampler coupled with Q Exactive Focus orbitrap mass spectrometer (Thermo Fisher Scientific Inc., Waltham MA). […] The mobile phase used was composed of 0.1% formic acid in water and 0.1% formic acid in acetonitrile with gradient elution. The total run time for each analyte was 5 min.
(§2) The mass spectrometer was operated with a HESI ion source in positive ionization mode where compounds were identified in the full scan mode (from m/z 75.00–1125.00) and controlled by the Xcalibur software 4.0.27.13 (Thermo Scientific). Data were acquired using Xcalibur software. Drugs were identified in the full-scan mode (from m/z 75.00 to 1125.00) by comparing t = 0 samples with t = 30 or 60 min samples, and structures were proposed based on the accurate mass information. The percentage of compound remaining for pantothenamides 1, 6, and 7 was determined from the analyte/internal standard (IS) area ratios obtained at t = 30 or 60 min relative to the mean ratios obtained at t = 0 min and calculated using equation 1:
(§3) % Remaining=(Peak area of Analyte/Preak area of ISat t=30 or 60 min/MeanPeak area of Analyte/Peak area of ISat t=0 min)×100

UPEC strain CFT073 [3] = test system: UPEC strain CFT073; design: method as in PMID 37107054; details: cited from earlier work
[4] = Stability in mouse plasma; type: in vitro ADME; details: for stability in mouse plasma: n = 3
Protocol: as §1, §2, §3

serum pantetheinases = details: cited from earlier work
mammalian cells = details: cited from earlier work

| remaining at 1 h, 10 µM [2] [%] | stability in mouse liver homogenate [2] | remaining at 1 h, 10 µM ([4]; CD1, mouse, plasma, 1 h, 10 µM compound, 37°C) [%] | stability in mouse plasma [4] | % remaining in mouse plasma ([4]; 1 h, 10 µM compound, 37°C) | SMILES | interaction with BAP against UPEC in urine (UPEC strain CFT073 [1]) | fold drop in potency in urine versus MOPS-glycerol (UPEC strain CFT073 [3]; UPEC CFT073) [fold] | MIC in commercial pooled human urine (UPEC strain CFT073 [3]; UPEC, commercial pooled human urine) [µM] | stability in the presence of serum pantetheinases (serum pantetheinases) | toxicity to mammalian cells (mammalian cells) |
| --- | --- | --- | --- | --- | --- | --- | --- | --- | --- | --- |
| 17 | unstable | < 1 | unstable | – | CCCCCNC(=O)CCNC(=O)[C@H](O)C(C)(C)CO [compound 1, N-pentylpantothenamide, reference compound] | synergy | ≥ 30 | 156 (≈ 45 µg/mL) | – | – |
| 96 | good stability | – | good stability | no degradation | CCCCCNC(=O)CNC(=O)[C@H](O)C(C)(C)CO [compound 6, N5-α-pantothenamide] | – | – | – | stable | non-toxic |
